Read-outs that look alike come from different tables or passages of the source.
Assays:
[1] = 100 mM stock in 100% DMSO; a 50 mM stock was prepared instead
[2] = test system: cryopreserved human hepatocytes; conditions: for Cytotoxicity (in words): cryopreserved HH compared with HepG2 and HepaRG, xCELLigence; for Cytotoxicity class by LC50: cryopreserved HH (3 donors), xCELLigence cell index, LC50 after 48 and 72 h
in vitro [3] = conditions: human, Cytotoxicity class by LC50
HepaRG cells [4] = conditions: xCELLigence cell index, LC50 after 48 and 72 h
HepG2 cells [5] = conditions: xCELLigence cell index, LC50 after 48 and 72 h
HepaRG cells [6] = format: cell-based, human; conditions: control (DMSO) vs induced, 24 h; for Number of differentially expressed probes, Down: fold change <-2, 1,250 probes; for Number of differentially expressed probes, Up: fold change >2, 1,250 probes; for Number of differentially expressed probes, Either: fold change >2 or <-2, 1,250 probes
[7] = test system: primary human hepatocytes; format: cell-based; conditions: control (DMSO) vs induced, 24 h, 1,250 probes; for Number of differentially expressed probes, Down: fold change <-2; for Number of differentially expressed probes, Up: fold change >2; for Number of differentially expressed probes, Either: fold change >2 or <-2
CYP1A2 = conditions: human
HepG2 cells [8] = format: cell-based, human; conditions: control (DMSO) vs induced, 24 h; for Number of differentially expressed probes, Down: fold change <-2, 1,250 probes; for Number of differentially expressed probes, Up: fold change >2, 1,250 probes; for Number of differentially expressed probes, Either: fold change >2 or <-2, 1,250 probes
[9] = read-out: Cmax (the maximum concentration of a drug in the blood after dosing); in vivo studies; cited from earlier work
in vitro [10] = conditions: human, Cytotoxicity class by LC50; remark: listed apart in the source
in vitro [11] = conditions: human, Cytotoxicity class by LC50; remark: listed apart in the source
CYP3A4 = conditions: human

CC(=O)N1CCN(c2ccc(OCC3COC(Cn4ccnc4)(c4ccc(Cl)cc4Cl)O3)cc2)CC1 (stereo not shown) [ketoconazole]
Solubility of stock solution [1]: solubility problems occurred at 100 mM | Cytotoxicity (in words) [2]: induced cytotoxicity in HH only

Nc1c2c(nc3ccccc13)CCCC2 [tacrine]
CC50 (in vitro [3]): 50 to 100 µM

CCOC(=O)C(C)(C)Oc1ccc(Cl)cc1 [clofibrate]
Cytotoxicity class by LC50 (HepaRG cells [4]): non cytotoxic | Cytotoxicity class by LC50 (HepG2 cells [5]): non cytotoxic | Cytotoxicity class by LC50 [2]: non cytotoxic

O=c1cc(-c2ccccc2)oc2ccc3ccccc3c12 [BNF, beta-naphthoflavone]
Number of differentially expressed probes, Down (HepaRG cells [6]): 25 | Number of differentially expressed probes, Up (HepaRG cells [6]): 106 | Number of differentially expressed probes, Either (HepaRG cells [6]): 131 | Number of differentially expressed probes, Down ([7]; HH1): 50 | Number of differentially expressed probes, Up ([7]; HH1): 74 | Number of differentially expressed probes, Either ([7]; HH1): 124 | Number of differentially expressed probes, Down ([7]; HH2): 81 | Number of differentially expressed probes, Up ([7]; HH2): 64 | Number of differentially expressed probes, Either ([7]; HH2): 145 | Number of differentially expressed probes, Down ([7]; HH3): 35 | Number of differentially expressed probes, Up ([7]; HH3): 51 | Number of differentially expressed probes, Either ([7]; HH3): 86 | Fold increase in CYP1A2 activity (CYP1A2): 9.1 fold | Number of differentially expressed probes, Down (HepG2 cells [8]): 61 | Number of differentially expressed probes, Up (HepG2 cells [8]): 31 | Number of differentially expressed probes, Either (HepG2 cells [8]): 92

CC(=O)Oc1ccccc1C(=O)O [aspirin]
Cytotoxicity class by LC50 (HepaRG cells [4]): non cytotoxic | Cytotoxicity class by LC50 (HepG2 cells [5]): non cytotoxic | Cytotoxicity class by LC50 [2]: non cytotoxic

C#C[C@]1(O)CC[C@H]2[C@@H]3CCC4=Cc5oncc5C[C@]4(C)[C@H]3CC[C@@]21C [danazol]
Cmax [9]: 160 nM

CC/C(=C(\c1ccccc1)c1ccc(OCCN(C)C)cc1)c1ccccc1 [tamoxifen]
CC50 (in vitro [3]): < 10 µM | CC50 (in vitro [10]): 10 to 50 µM | CC50 (in vitro [11]): 10 to 50 µM

CC(C)C(=O)Nc1ccc([N+](=O)[O-])c(C(F)(F)F)c1 [flutamide]
Cytotoxicity (in words) [2]: induced cytotoxicity in HH only

CCCCc1oc2ccccc2c1C(=O)c1cc(I)c(OCCN(CC)CC)c(I)c1 [amiodarone]
CC50 (in vitro [3]): < 10 µM

CC(CCc1ccccc1)NCC(O)c1ccc(O)c(C(N)=O)c1 (stereo not shown) [labetalol]
Cytotoxicity (in words) [2]: induced cytotoxicity in HH only

CCC1(c2ccccc2)C(=O)NC(=O)NC1=O [PB, phenobarbital]
Effect on CYP2B6 activity (CYP2B6): did not have any effect | Number of differentially expressed probes, Down (HepaRG cells [6]): 25 | Number of differentially expressed probes, Up (HepaRG cells [6]): 35 | Number of differentially expressed probes, Either (HepaRG cells [6]): 60 | Fold increase in CYP3A4 activity (CYP3A4): 36.6 times | Number of differentially expressed probes, Down ([7]; HH1): 44 | Number of differentially expressed probes, Up ([7]; HH1): 46 | Number of differentially expressed probes, Either ([7]; HH1): 90 | Number of differentially expressed probes, Down ([7]; HH2): 121 | Number of differentially expressed probes, Up ([7]; HH2): 39 | Number of differentially expressed probes, Either ([7]; HH2): 160 | Number of differentially expressed probes, Down ([7]; HH3): 29 | Number of differentially expressed probes, Up ([7]; HH3): 76 | Number of differentially expressed probes, Either ([7]; HH3): 105 | Number of differentially expressed probes, Down (HepG2 cells [8]): 60 | Number of differentially expressed probes, Up (HepG2 cells [8]): 17 | Number of differentially expressed probes, Either (HepG2 cells [8]): 77

CO[C@H]1/C=C/O[C@@]2(C)Oc3c(C)c(O)c4c(O)c(c(/C=N/N5CCN(C)CC5)c(O)c4c3C2=O)NC(=O)/C(C)=C\C=C\[C@H](C)[C@H](O)[C@@H](C)[C@@H](O)[C@@H](C)[C@H](OC(C)=O)[C@@H]1C [RIF, rifampicin]
Number of differentially expressed probes, Down (HepaRG cells [6]): 22 | Number of differentially expressed probes, Up (HepaRG cells [6]): 41 | Number of differentially expressed probes, Either (HepaRG cells [6]): 63 | Number of differentially expressed probes, Down ([7]; HH1): 61 | Number of differentially expressed probes, Up ([7]; HH1): 26 | Number of differentially expressed probes, Either ([7]; HH1): 87 | Number of differentially expressed probes, Down ([7]; HH2): 49 | Number of differentially expressed probes, Up ([7]; HH2): 39 | Number of differentially expressed probes, Either ([7]; HH2): 88 | Number of differentially expressed probes, Down ([7]; HH3): 22 | Number of differentially expressed probes, Up ([7]; HH3): 59 | Number of differentially expressed probes, Either ([7]; HH3): 81 | Number of differentially expressed probes, Down (HepG2 cells [8]): 22 | Number of differentially expressed probes, Up (HepG2 cells [8]): 27 | Number of differentially expressed probes, Either (HepG2 cells [8]): 49
